For the experiment, the system named is Clone20 osteoblast Shn3 3'UTR firefly luciferase, 24 h. The experiment can be described thus: Shn3 3'UTR reporter inhibitors, dose response, cell-based, luminescence, dry powder (AID 720696).

Molecules are shown by their SMILES.

Broadly, the AC50 is the concentration giving half of the maximal activity seen. With `CC(=O)Nc1cccc(NC(=O)CSc2ncc(-c3ccc(Cl)cc3)n2Cc2ccco2)c1`, the AC50 is 3380 nM.

Regarding `COc1ccc2c(c1)c(CC(=O)Nc1cc(C)ccc1C)c(C)n2C(=O)c1ccc(Cl)cc1`, the AC50 is 3240 nM.

In the case of `CC(=O)N1CCN(C(=O)CCc2cc(C(C)(C)C)c(O)c(C(C)(C)C)c2)CC1`, the AC50 was 4010 nM.

For the molecule `Cc1ccc2cc(CN(CC3CCCO3)C(=O)NC3CCCCC3)c(=O)[nH]c2c1C` (stereo not drawn), the AC50 is 5220 nM.

For `CC(C)(C)NC(=O)CSc1nc2ccc(NC(=O)CSc3nnnn3Cc3ccccc3)cc2s1`, the AC50 was 2140 nM.

Consider `O=c1c2ccccc2nc2n1C(CSCc1ccc(Cl)cc1Cl)CS2` (stereo not drawn), for which the AC50 was 2010 nM.

For the molecule `COc1ccc(NC(=O)c2nc(S(=O)(=O)Cc3cccc(C)c3)ncc2Cl)c(OC)c1`, the AC50 was 3860 nM.

With `CCCOc1ccccc1C1CC(=O)Nc2cc3c(cc21)OCO3` (stereo not drawn), the AC50 was 2160 nM.

With `Nc1nonc1C(=O)NCCNCc1cc(Br)ccc1OCc1ccc(F)cc1`, the AC50 is 2030 nM.

As to `Fc1ccc(-n2nnnc2-c2cnc(-c3cccs3)nc2C(F)(F)F)cc1`, the AC50 is 2760 nM.

For `CCOC(=O)C1(Cc2ccc(Cl)cc2)CCN(C(C)Cc2ccc(O)c(OC)c2)CC1` (stereo not drawn), the AC50 was 1620 nM.

For the molecule `O=C1CSc2ccc(C(=O)Nc3cccc(S(=O)(=O)Nc4ccc(Br)cc4)c3)cc2N1`, the AC50 was 1990 nM.

For the molecule `CC(C)[C@H](NC(=O)OC(C)(C)C)c1nnc(S(=O)(=O)Cc2c(F)cccc2Cl)o1`, the AC50 is 17100 nM.

Take `CCCc1nnc(NC(=O)c2nc(S(=O)(=O)Cc3ccc(C)cc3)ncc2Cl)s1`: the AC50 was 3830 nM.

On to `CN(C(=O)COc1ccccc1C(=O)NCCOc1ccccc1)c1ccccc1`, for which the AC50 is 1920 nM.

Consider `CN(C)c1nc(-c2ccccn2)nnc1-c1ccccc1`, for which the AC50 was 2620 nM.

On to `CN(C)S(=O)(=O)c1cccc(NC(=O)c2cccc(S(=O)(=O)N3CCc4ccccc43)c2)c1`, for which the AC50 is 2410 nM.

As for `COc1cc2ncnc(N[C@H](C)c3ccccc3)c2cc1OC`, the AC50 was 5130 nM.

Regarding `COc1ccc(NS(=O)(=O)c2ccc(C(=O)N3CCCCCC3)cc2)cc1`, the AC50 is 3700 nM.

For the molecule `Cc1cc2c(cc(C(=O)N3CCC(C(=O)NC4CCCC4)CC3)n2Cc2c(F)cccc2Cl)o1`, the AC50 was 21300 nM.

Regarding `CN(CC(=O)Nc1cccc(S(=O)(=O)N2CCOCC2)c1)CC(=O)Nc1ccc(Cl)c(C(F)(F)F)c1`, the AC50 was 877 nM.

Consider `O=C(c1nnsc1S(=O)c1ccc(Cl)cc1)N1CCOCC1` (stereo not drawn), for which the AC50 is 5080 nM.

As for `COc1cc(CN2CCc3ccccc3C2)ccc1O`, the AC50 is 2090 nM.

`COc1ccc(Nc2nc(N3CCCCC3)c3ccccc3n2)cc1`: the AC50 was 1100 nM.

Turning to `COc1ccccc1N1CCN(c2ncc(C(=O)N3CCN(c4cccc(Cl)c4)CC3)c3ccccc23)CC1`, the AC50 is 2540 nM.

On to `CCOC(=O)C1CCN(C(=O)c2ccc(OCC(=O)Nc3cccc(C(F)(F)F)c3)c(OC)c2)CC1`, for which the AC50 was 1400 nM.

On to `CCOC(=O)c1ccc(NC(=O)Cn2ncc(Cl)c(Cl)c2=O)cc1`, for which the AC50 was 2560 nM.

For the molecule `Cc1cc(N2CCCC2=O)cc(C)c1S(=O)(=O)NCCOc1ccc(C(C)(C)C)cc1`, the AC50 is 797 nM.
